In patent US20060135480A1, “Derivatives of succinic and glutaric acids and analogs thereof useful as inhibitors of phex” (Enobia Pharma, priority 2002, published 2006):

Columns and labels:
rat mandibular defect = test: Bone lesion repair in rat mandibular defect model (hydroxyapatite particles soaked in inhibitor); format: in vivo; settings: for bone formation (scanning electron microscopy, % of total defect area): 14 days of healing
Protocol: Osteogenic properties of PHEX inhibitors can be shown in a model of rat mandibular defect. For example, a 2 mm size bone defect was created in the rat mandible as described previously (Vu et al., 1999). Rats were anesthetized and the vestibular surface of the right mandibular ramus was exposed as follow: an incision was made through the skin along an imaginary line forming a 90° angle with the lower lip to access the muscle layer. A scalpel blade was used to make an incision parallel to the fibers of the deep portion of masseter muscle, about 2 mm posterior to the facial artery (largest branch of the external carotid), in the portion where it gives rise to the labial mandibular artery. The periosteum was elevated and the underlying bony surface exposed. A 2 mm×2 mm bony window was drilled between the second and third molar using a slow-speed dental drill with a carbide round burr size 1.4 mm (Brasseler) and a drill size 2 mm (Straumann Canada Ltd). Saline irrigation was used during the drilling. Porous hydroxyapatite particles (Fin-Ceramica Faenza s.r.l.) with pore size ranged from 450 to 600 μm were accommodated in the bony hole and pushed into it. The particles had been incubated previously in solutions of varying concentrations of PHEX inhibitor or vehicle for 16 to 24 hours at 4° C. Once the bony window was filled the lesion was covered with a membrane of hydroxyapatite (Fin-Ceramica Faenza s.r.l.) which was fixed to the surrounding bone surface with topical tissue adhesive. The muscle fibers were carefully repositioned on the mandible and sutured with absorbable surgical sutures (Chromic Gut, Ethicon Inc.). The skin was sutured for total coverage with silk sutures (Sherwood Davis & Geck, Wayne). After 7 days of treatment the bone lesion was exposed and varying concentrations of PHEX inhibitor or vehicle was reapplied to hydroxyapatite particles. Treatment was continued for another 7 days.
After the 14 day healing period, bone formation at the defect was evaluated by scanning electron microscopy and microcomputed tomography. Animals were sacrificed by intravascular perfusion through the left ventricle with 4% paraformaldehyde and 0.1% glutaraldehyde solution. Treated hemimandibles were taken, immersed in the fixative overnight at 4° C. then washed and kept in 0.1 M cacodylate buffer pH 8.0 until analysis. Specimens for quantification by scanning electron microscopy were dehydrated in a graded alcohol series and embedded in LR White resin (Marivac) for further sectioning along their longitudinal axis. […] Amount of bone tissue present in the sections was quantified by manual tracing using the MOP-3 system (Carl Zeiss) and was expressed as a percentage of the total defect area.

sPHEX = molecular target: T1, sPHEX (Homo sapiens, UniProt P78562); test: Protection of PHEX substrate PTHrP107-139 from sPHEX degradation (RP-HPLC); format: biochemical; settings: 1×10^−5 M inhibitor, 15 min preincubation, 30 min at 37° C.
T1 construct: The soluble form of the metallopeptidase PHEX (sPHEX) was purified to homogeneity; made in house
T1 sequence (P78562 53-749 limits assumed): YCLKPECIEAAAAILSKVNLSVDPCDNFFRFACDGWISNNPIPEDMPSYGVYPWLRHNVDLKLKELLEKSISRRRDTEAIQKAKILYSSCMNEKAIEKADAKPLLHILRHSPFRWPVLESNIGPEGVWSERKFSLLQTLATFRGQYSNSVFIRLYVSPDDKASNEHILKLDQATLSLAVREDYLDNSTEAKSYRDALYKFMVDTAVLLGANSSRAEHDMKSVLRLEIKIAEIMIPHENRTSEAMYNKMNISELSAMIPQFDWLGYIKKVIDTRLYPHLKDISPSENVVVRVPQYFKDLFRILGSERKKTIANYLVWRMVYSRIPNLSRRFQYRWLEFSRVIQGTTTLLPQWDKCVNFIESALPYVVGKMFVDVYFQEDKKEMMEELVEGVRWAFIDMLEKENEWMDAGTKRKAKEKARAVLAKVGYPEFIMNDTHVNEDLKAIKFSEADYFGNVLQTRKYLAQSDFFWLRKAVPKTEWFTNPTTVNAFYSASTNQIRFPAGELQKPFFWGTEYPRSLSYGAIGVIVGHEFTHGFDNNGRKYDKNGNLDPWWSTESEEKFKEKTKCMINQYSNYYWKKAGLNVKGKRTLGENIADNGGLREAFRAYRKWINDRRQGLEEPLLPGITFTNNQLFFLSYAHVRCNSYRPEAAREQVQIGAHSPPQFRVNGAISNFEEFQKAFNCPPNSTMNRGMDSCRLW
Protocol: In general, in order to show inhibition of sPHEX, the enzyme is incubated in the absence or the presence of the inhibiting compound, and a substrate is added in conditions that are suitable for sPHEX enzymatic activity. Hydrolysis of the substrate in the absence or the presence of the inhibiting compound is monitored.
For example, 1.0 μg of purified sPHEX was first incubated at 37° C. for 15 min with or without 1×10^−5M of compound MH-2-64C (FIG. 1) in 90 μl 50 mM MES (2-(N-morpholino) ethanesulfonic acid) pH 6.5, 150 mM NaCl. Then, 2.5 μg of peptide PTHrP107-139 in 10 μl of the same buffer were added and the incubation continued for 30 min. The reaction mixture also contained 1.3 μg of the amino acid Phe which was used as an internal standard. After the incubation period, the reaction was stopped by the addition of EDTA to a final concentration of 5 mM. Detection of cleavage products was performed by reverse phase high performance liquid chromatography (RP-HPLC) on a C18 μBondapak™ analytical column (Waters, Mississauga, ON, Canada) with a UV detector set at 220 nm. […] Results were quantified by comparing the area under the undigested peak of PTHrP107-139, after normalization for the amount of Phe present in the sample.

`O=C(O)CC(CC(=O)NO)C(=O)NCCc1ccc(-c2ccccc2)cc1` (centres unmarked) [Example 126, 3-(2-Biphenyl-4-yl-ethylcarbamoyl)4-hydroxycarbamoyl-butyric acid] was tested, and the “bone formation (scanning electron microscopy, % of total defect area)” value (rat mandibular defect; 1×10^−5 M on hydroxyapatite particles, compared to saline) was “reduced significantly”, the “bone formation (microcomputed tomography 3D reconstruction)” value (rat mandibular defect; high inhibitor dose, one representative specimen per group) was “reduced bone formation” and the “bone around particles (microcomputed tomography 3D reconstruction)” value (rat mandibular defect; low dose of inhibitor vs saline, one representative specimen per group) was “more bone”. The “bone formation (scanning electron microscopy, % of total defect area)” value (rat mandibular defect; lower concentrations on hydroxyapatite particles) was “significantly stimulated” and the “degradation of PTHrP107-139 by sPHEX” value (sPHEX) was “fully prevented”.
